Reference: PubChem BioAssay (NCI)
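Test compounds were applied to cells in 96-well plates for 48 hours at 5 doses. Definition used: TGI = concentration required for complete inhibition of growth.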

Assays:
Experiment in all cases: NCI-60 cell line screen, 48 h
[1] = test system: LXFL 529 NSCLC
[2] = test system: UACC-62 melanoma
[3] = test system: RXF 393 renal
[4] = test system: HCT-15 colon
[5] = test system: HCC-2998 colon
[6] = test system: SR leukemia
[7] = test system: RPMI-8226 leukemia
[8] = test system: SK-MEL-28 melanoma
[9] = test system: M19-MEL melanoma
[10] = test system: UO-31 renal
[11] = test system: XF 498 CNS
[12] = test system: KM20L2 colon
[13] = test system: COLO 205 colon
[14] = test system: OVCAR-5 ovarian
[15] = test system: SK-MEL-5 melanoma
[16] = test system: DMS 273 small cell lung
[17] = test system: NCI-H522 lung
[18] = test system: CAKI-1 renal
[19] = test system: OVCAR-8 ovarian
[20] = test system: SF-295 CNS
[21] = test system: SK-OV-3 ovarian
[22] = test system: K-562 leukemia
[23] = test system: NCI-H460 lung
[24] = test system: UACC-257 melanoma
[25] = test system: U251 CNS
[26] = test system: HOP-18 NSCLC
[27] = test system: CCRF-CEM leukemia
[28] = test system: SF-268 CNS
[29] = test system: HL-60(TB) leukemia
[30] = test system: NCI-H226 lung
[31] = test system: EKVX NSCLC
[32] = test system: TK-10 renal
[33] = test system: HT29 colon
[34] = test system: M14 melanoma
[35] = test system: OVCAR-4 ovarian
[36] = test system: SN12C renal
[37] = test system: A549 NSCLC
[38] = test system: KM12 colon
[39] = test system: MALME-3M melanoma
[40] = test system: OVCAR-3 ovarian
[41] = test system: DLD-1 colon
[42] = test system: SNB-78 CNS
[43] = test system: HCT-116 colon
[44] = test system: A498 renal
[45] = test system: HOP-62 NSCLC
[46] = test system: IGROV1 ovarian
[47] = test system: ACHN renal
[48] = test system: MOLT-4 leukemia
[49] = test system: SNB-75 CNS
[50] = test system: SW-620 colon
[51] = test system: 786-0 renal
[52] = test system: LOX IMVI melanoma
[53] = test system: SF-539 CNS
[54] = test system: SK-MEL-2 melanoma
[55] = test system: SNB-19 CNS
[56] = test system: NCI-H23 lung
[57] = test system: DMS 114 small cell lung
[58] = test system: HOP-92 NSCLC

c1ccc2c(c1)N=C(c1cccc3ccccc13)CC(c1cccc3ccccc13)S2 (stereo not drawn)
TGI [1]: 11.4 µM
TGI [2]: 19.8 µM
TGI [3]: 16.5 µM
TGI [4]: 22.5 µM
TGI [5]: 11.2 µM
TGI [6]: 4.89 µM
TGI [7]: 4.85 µM
TGI [8]: 25.9 µM
TGI [9]: 20.3 µM
TGI [10]: 23.6 µM
TGI [11]: 22.1 µM
TGI [12]: 10.4 µM
TGI [13]: 28.3 µM
TGI [14]: 16.8 µM
TGI [15]: 22.1 µM
TGI [16]: > 44.7 µM
TGI [17]: 8.44 µM
TGI [18]: 13.2 µM
TGI [19]: 16.6 µM
TGI [20]: 27.2 µM
TGI [21]: 29.8 µM
TGI [22]: 6.32 µM
TGI [23]: 19.5 µM
TGI [24]: 31.8 µM
TGI [25]: 6.08 µM
TGI [26]: 13.8 µM
TGI [27]: 4.67 µM
TGI [28]: 20.4 µM
TGI [29]: 3.56 µM
TGI [30]: 24.6 µM
TGI [31]: 28.7 µM
TGI [32]: 25.8 µM
TGI [33]: 10.1 µM
TGI [34]: 26.2 µM
TGI [35]: 12.4 µM
TGI [36]: 15.9 µM
TGI [37]: 41.9 µM
TGI [38]: 9.6 µM
TGI [39]: 28.7 µM
TGI [40]: 9.68 µM
TGI [41]: 16.2 µM
TGI [42]: 33.4 µM
TGI [43]: 12.9 µM
TGI [44]: 20.8 µM
TGI [45]: 26.1 µM
TGI [46]: 19.7 µM
TGI [47]: 23.5 µM
TGI [48]: 5.15 µM
TGI [49]: 19.1 µM
TGI [50]: 6.81 µM
TGI [51]: 13.5 µM
TGI [52]: 11.4 µM
TGI [53]: 14.5 µM
TGI [54]: 33 µM
TGI [55]: 12.9 µM
TGI [56]: 12.5 µM
TGI [57]: 9.96 µM

O=c1c2cc3c(=O)n(CCc4ccccc4CO)c(=O)c3cc2c(=O)n1CCc1ccccc1CO
TGI [1]: > 100 µM
TGI [2]: > 100 µM
TGI [3]: > 100 µM
TGI [4]: > 100 µM
TGI [8]: > 100 µM
TGI [9]: > 100 µM
TGI [10]: > 100 µM
TGI [11]: > 100 µM
TGI [15]: > 100 µM
TGI [16]: > 100 µM
TGI [17]: > 100 µM
TGI [19]: > 100 µM
TGI [20]: > 100 µM
TGI [21]: > 100 µM
TGI [22]: > 100 µM
TGI [23]: > 100 µM
TGI [24]: > 100 µM
TGI [25]: > 100 µM
TGI [27]: > 100 µM
TGI [28]: > 100 µM
TGI [29]: > 100 µM
TGI [30]: > 100 µM
TGI [32]: > 100 µM
TGI [33]: > 100 µM
TGI [35]: > 100 µM
TGI [36]: > 100 µM
TGI [37]: > 100 µM
TGI [38]: > 100 µM
TGI [39]: > 100 µM
TGI [40]: > 100 µM
TGI [41]: > 100 µM
TGI [42]: > 100 µM
TGI [43]: > 100 µM
TGI [44]: > 100 µM
TGI [46]: > 100 µM
TGI [47]: > 100 µM
TGI [48]: > 100 µM
TGI [49]: > 100 µM
TGI [50]: > 100 µM
TGI [52]: > 100 µM
TGI [53]: > 100 µM
TGI [54]: > 100 µM
TGI [55]: > 100 µM
TGI [56]: > 100 µM
TGI [57]: > 100 µM

CCC1C(=O)OCc2c1cc1n(c2=O)CCC12OCCO2 (stereo not drawn)
TGI [1]: > 100 µM
TGI [2]: > 100 µM
TGI [58]: > 100 µM
TGI [4]: > 100 µM
TGI [5]: > 100 µM
TGI [6]: > 100 µM
TGI [7]: > 100 µM
TGI [8]: > 100 µM
TGI [9]: > 100 µM
TGI [10]: > 100 µM
TGI [11]: > 100 µM
TGI [12]: > 100 µM
TGI [13]: > 100 µM
TGI [14]: > 100 µM
TGI [15]: > 100 µM
TGI [16]: > 100 µM
TGI [17]: > 100 µM
TGI [18]: > 100 µM
TGI [19]: > 100 µM
TGI [20]: > 100 µM
TGI [21]: > 100 µM
TGI [22]: > 100 µM
TGI [23]: > 100 µM
TGI [24]: > 100 µM
TGI [25]: > 100 µM
TGI [27]: > 100 µM
TGI [28]: > 100 µM
TGI [29]: > 100 µM
TGI [30]: > 100 µM
TGI [31]: > 100 µM
TGI [32]: > 100 µM
TGI [33]: > 100 µM
TGI [34]: > 100 µM
TGI [35]: > 100 µM
TGI [36]: > 100 µM
TGI [37]: > 100 µM
TGI [38]: > 100 µM
TGI [41]: > 100 µM
TGI [42]: > 100 µM
TGI [43]: > 100 µM
TGI [44]: > 100 µM
TGI [45]: > 100 µM
TGI [46]: > 100 µM
TGI [47]: > 100 µM
TGI [48]: > 100 µM
TGI [49]: > 100 µM
TGI [50]: > 100 µM
TGI [51]: > 100 µM
TGI [52]: > 100 µM
TGI [53]: > 100 µM
TGI [54]: > 100 µM
TGI [55]: > 100 µM
TGI [56]: > 100 µM
TGI [57]: > 100 µM

CCOC(=O)Cc1nc(/C(C#N)=C/c2ccco2)[nH]c(=O)c1C#N
TGI [1]: > 100 µM
TGI [2]: > 100 µM
TGI [3]: > 100 µM
TGI [58]: > 100 µM
TGI [4]: > 100 µM
TGI [5]: > 100 µM
TGI [6]: > 100 µM
TGI [7]: > 100 µM
TGI [9]: > 100 µM
TGI [10]: > 100 µM
TGI [12]: > 100 µM
TGI [13]: > 100 µM
TGI [14]: > 100 µM
TGI [15]: > 100 µM
TGI [16]: > 100 µM
TGI [17]: > 100 µM
TGI [18]: > 100 µM
TGI [19]: > 100 µM
TGI [20]: > 100 µM
TGI [21]: > 100 µM
TGI [22]: > 100 µM
TGI [23]: > 100 µM
TGI [24]: > 100 µM
TGI [25]: > 100 µM
TGI [26]: > 100 µM
TGI [27]: > 100 µM
TGI [29]: > 100 µM
TGI [30]: > 100 µM
TGI [31]: > 100 µM
TGI [32]: > 100 µM
TGI [33]: > 100 µM
TGI [34]: > 100 µM
TGI [35]: > 100 µM
TGI [36]: > 100 µM
TGI [37]: > 100 µM
TGI [38]: > 100 µM
TGI [40]: > 100 µM
TGI [41]: > 100 µM
TGI [42]: 93.9 µM
TGI [43]: > 100 µM
TGI [45]: > 100 µM
TGI [46]: > 100 µM
TGI [47]: > 100 µM
TGI [48]: > 100 µM
TGI [49]: > 100 µM
TGI [50]: > 100 µM
TGI [51]: > 100 µM
TGI [52]: > 100 µM
TGI [53]: > 100 µM
TGI [54]: > 100 µM
TGI [55]: > 100 µM
TGI [56]: > 100 µM
